According to US20040024543A1, “Methods and systems for analyzing complex biological systems” (priority 2001, published 2004):

How the values were obtained:
[1] = test system: Saccharomyces cerevisiae wild type strain BY4743; assay: AF1 yeast gene expression analysis (microarray) after antifungal drug treatment; assay type: cell-based; conditions: 2×MIC, two hours
Procedure: Saccharomyces cerevisiae wild type strain BY4743 was purchased from American Type Culture Center (ATCC, Manassas, Va.). The yeast strain was grown in YPD or SD media. […] The cultures started from fresh single colonies were grown in 1.0 ml YPD overnight at 30° C. […] The OD600 was adjusted to 1.0 with YPD media, then 2.0 ml of each was inoculated into three 250 ml flasks, each containing 50 ml of SD media. […] The cells were kept growing for another two hours, then collected by centrifugation at 4000 rpm for 5 minutes at 4° C. Pellets were washed once with ice-cold water, then were lyophilized overnight at 4° C. […] Tubes were vortexed for 30 seconds, then incubated for 10 minutes at room temperature (RT). […] Tubes were incubated for 10 minutes at RT. Samples were centrifuged for 20 minutes as before. Pellets were washed with 400 μl 70% ethanol and centrifuged for 10 minutes as before. The pellet was then dissolved in 100 μl nuclease-free water. RNA quality was determined using the Bioanalyzer 2100 and the RNA 6000 assay (Agilent Technologies, Palo Alto, Calif.) according to manufacturer's instructions. RNA concentrations were determined spectrophotometrically by measuring the absorption at 260 nm in an Ultrospec 2000 (Pharmacia Biotech, Piscataway, N.J.). […] Labeled cRNAs were evaluated using the RNA 6000 assay on the Agilent Bioanalyzer 2100. Labeled cRNA concentrations were determined spectrophotometrically by measuring the absorption at 260 nm in an Ultrospec 2000 (Pharmacia Biotech, Piscataway, N.J.). […] Each pair of samples to be hybridized were independently labeled and hybridized utilizing a fluor reversal for a total of two hybridizations per sample pair. […] Each feature was determined from an array's associated pattern file and a detection algorithm. Intensity values for each feature were determined after subtracting background derived from an average of negative control features. […] Data was evaluated after combining results from fluor reversal replicate hybridizations. […]

[2] = test system: Arabidopsis thaliana; assay: SOA1 phenotypic analysis of herbicide-treated Arabidopsis (MIC, Tmic, leaf traits); assay type: in vivo
[3] = test system: Arabidopsis thaliana; assay: MOA1 gene expression profiling (22,000 gene arrays) of sprayed Arabidopsis; conditions: regulated genes at 1 hr compared with internal list of essential genes
[4] = test system: Magnaporthe grisea; assay type: cell-based; conditions: in the presence of the compound
[5] = test system: Arabidopsis thaliana; assay: MOA1 biochemical (metabolite) profiling by LC-MS and GC-MS of sprayed Arabidopsis; conditions: MOA1, 20 min and 1 hour after spraying

SMILES	# Transripts perturbed by treatment ([1]; P < 0.05)	characteristic morphological symptoms ([2]; SOA1, in words)	tMic (Dev.) ([2]; SOA1, coded score of time to full range of symptoms at MIC)	No. of Lethal Genes Altered [3]	nitrogen source utilization of M. grisea [4]	stress-related (commonly regulated) metabolites [5]	# Transripts perturbed by treatment ([1]; P < 0.1)
CC[C@@H]([C@H](C)O)n1ncn(-c2ccc(N3CCN(c4ccc(OC[C@@H]5CO[C@@](Cn6cncn6)(c6ccc(F)cc6F)C5)cc4)CC3)cc2)c1=O [Posaconazole]	690						
CP(=O)(O)CCC(N)C(=O)O (centres unmarked) [Glufosinate]		Chlorosis and leaf curling	1	10	only able to utilize glutamine and glutamate as nitrogen sources	Only a few, if any	
C[C@@H]1[C@H](O)[C@@H](C)/C=C/C=C/C=C/C=C/C=C/C=C/C=C/[C@H](O[C@@H]2O[C@H](C)[C@@H](O)[C@H](N)[C@@H]2O)C[C@@H]2O[C@](O)(C[C@@H](O)C[C@@H](O)[C@H](O)CC[C@@H](O)C[C@@H](O)CC(=O)O[C@H]1C)C[C@H](O)[C@H]2C(=O)O [Amphoteracin B]	4363						4652
